Reference: ChEMBL document CHEMBL3044672, “N9- and N7-(Chloromethyl Phenymethyl)Chloropurine Derivatives from , '-Dichloroxylenes: Synthesis and Anticancer Activity” (2005)

Legend:
Assay type in all cases: functional
M14 = assay: Cytotoxicity against Homo sapiens (human) M14 cells after 48 hr by sulforhodamine B assay; conditions: M14, 48 h
Hs-578T = assay: Cytotoxicity against Homo sapiens (human) Hs 578T cells after 48 hr by sulforhodamine B assay
RPMI-8226 = assay: Cytotoxicity against Homo sapiens (human) RPMI8226 cells after 48 hr by sulforhodamine B assay; conditions: RPMI-8226, 48 h; for CC50: read-out: LC50 (the source's name)
SW-620 = assay: Cytotoxicity against Homo sapiens (human) SW620 cells after 48 hr by sulforhodamine B assay; conditions: SW-620, 48 h; for CC50: read-out: LC50 (the source's name)
HCT-15 = assay: Cytotoxicity against Homo sapiens (human) HCT15 cells after 48 hr by sulforhodamine B assay; conditions: HCT-15, 48 h; for CC50: read-out: LC50 (the source's name)
ACHN = assay: Cytotoxicity against Homo sapiens (human) ACHN cells after 48 hr by sulforhodamine B assay; conditions: for CC50: read-out: LC50 (the source's name)
MCF7 [1] = assay: Cytotoxicity against Homo sapiens (human) MCF7 cells assessed as cell growth at 10^-4 M after 48 hr by Alamar blue assay; conditions: MCF7, 48 h, read-out: Activity
TK-10 = assay: Cytotoxicity against Homo sapiens (human) TK10 cells after 48 hr by sulforhodamine B assay; conditions: TK-10, 48 h; for CC50: read-out: LC50 (the source's name)
NCI-H460 [2] = assay: Cytotoxicity against Homo sapiens (human) NCI-H460 cells after 48 hr by sulforhodamine B assay; conditions: NCI-H460, 48 h; for CC50: read-out: LC50 (the source's name)
UO-31 = assay: Cytotoxicity against Homo sapiens (human) UO31 cells after 48 hr by sulforhodamine B assay; conditions: UO-31, 48 h
SF-295 = assay: Cytotoxicity against Homo sapiens (human) SF295 cells after 48 hr by sulforhodamine B assay; conditions: SF-295, 48 h; for CC50: read-out: LC50 (the source's name)
BT-549 = assay: Cytotoxicity against Homo sapiens (human) BT549 cells after 48 hr by sulforhodamine B assay; conditions: BT-549, 48 h
OVCAR-8 = assay: Cytotoxicity against Homo sapiens (human) OVCAR8 cells after 48 hr by sulforhodamine B assay; conditions: OVCAR-8, 48 h
SK-MEL-28 = assay: Cytotoxicity against Homo sapiens (human) SK-MEL-28 cells after 48 hr by sulforhodamine B assay; conditions: SK-MEL-28, 48 h
SNB-19 = assay: Cytotoxicity against Homo sapiens (human) SNB19 cells after 48 hr by sulforhodamine B assay; conditions: SNB-19, 48 h
DU-145 = assay: Cytotoxicity against Homo sapiens (human) DU145 cells after 48 hr by sulforhodamine B assay; conditions: DU-145, 48 h
SNB-75 = assay: Cytotoxicity against Homo sapiens (human) SNB75 cells after 48 hr by sulforhodamine B assay; conditions: SNB-75, 48 h; for CC50: read-out: LC50 (the source's name)
LOX IMVI = assay: Cytotoxicity against Homo sapiens (human) LOXIMVI cells after 48 hr by sulforhodamine B assay
OVCAR-5 = assay: Cytotoxicity against Homo sapiens (human) OVCAR5 cells after 48 hr by sulforhodamine B assay; conditions: OVCAR-5, 48 h; for CC50: read-out: LC50 (the source's name)
SF-268 = assay: Cytotoxicity against Homo sapiens (human) SF268 cells after 48 hr by sulforhodamine B assay; conditions: SF-268, 48 h
786-0 = assay: Cytotoxicity against Homo sapiens (human) 786-0 cells after 48 hr by sulforhodamine B assay; conditions: 786-0, 48 h
MCF7 [3] = assay: Cytotoxicity against Homo sapiens (human) MCF7 cells after 48 hr by sulforhodamine B assay; conditions: MCF7, 48 h
T47D = assay: Cytotoxicity against Homo sapiens (human) T47D cells after 48 hr by sulforhodamine B assay
A498 = assay: Cytotoxicity against Homo sapiens (human) A498 cells after 48 hr by sulforhodamine B assay; conditions: A498, 48 h
HOP-92 = assay: Cytotoxicity against Homo sapiens (human) HOP92 cells after 48 hr by sulforhodamine B assay; conditions: HOP-92, 48 h; for CC50: read-out: LC50 (the source's name)
CCRF-CEM = assay: Cytotoxicity against Homo sapiens (human) CCRF-CEM cells after 48 hr by sulforhodamine B assay; conditions: for CC50: read-out: LC50 (the source's name)
NCI-H460 [4] = assay: Cytotoxicity against Homo sapiens (human) NCI-H460 cells assessed as cell growth at 10^-4 M after 48 hr by Alamar blue assay; conditions: NCI-H460, 48 h, read-out: Activity

Compound: ClCc1cccc(Cn2cnc3nc(Cl)nc(Cl)c32)c1
- GI50 (M14): 1.38 µM
- LC50 (M14): 5.12 µM
- TGI (M14): 2.63 µM
- GI50 (Hs-578T): 1.41 µM
- TGI (Hs-578T): 2.81 µM
- GI50 (RPMI-8226): 1.69 µM
- TGI (RPMI-8226): 4.16 µM
- CC50 (RPMI-8226): > 100 µM
- GI50 (SW-620): 0.41 µM
- TGI (SW-620): 1.65 µM
- CC50 (SW-620): 4.07 µM
- GI50 (HCT-15): 0.95 µM
- TGI (HCT-15): 2.13 µM
- CC50 (HCT-15): 4.57 µM
- GI50 (ACHN): 1.12 µM
- TGI (ACHN): 2.34 µM
- CC50 (ACHN): 4.78 µM
- growth at 100 µM (MCF7 [1]): 0%
- GI50 (TK-10): 16.6 µM
- TGI (TK-10): 30.2 µM
- CC50 (TK-10): 55 µM
- GI50 (NCI-H460 [2]): 1.69 µM
- TGI (NCI-H460 [2]): 3.09 µM
- CC50 (NCI-H460 [2]): 5.49 µM
- GI50 (UO-31): 17.4 µM
- LC50 (concentration causing 50% net cell kill) (UO-31): 72.4 µM
- TGI (UO-31): 35.5 µM
- GI50 (SF-295): 1.86 µM
- TGI (SF-295): 3.38 µM
- CC50 (SF-295): 6.3 µM
- GI50 (BT-549): 0.48 µM
- LC50 (50% lethal concentration) (BT-549): 4.16 µM
- TGI (BT-549): 1.73 µM
- GI50 (OVCAR-8): 9.33 µM
- LC50 (concentration killing 50% of cells) (OVCAR-8): 45.7 µM
- TGI (OVCAR-8): 21.4 µM
- GI50 (SK-MEL-28): 0.17 µM
- LC50 (concentration killing 50% of cells) (SK-MEL-28): 0.97 µM
- TGI (SK-MEL-28): 0.4 µM
- GI50 (SNB-19): 1.38 µM
- LC50 (SNB-19): 5.12 µM
- TGI (SNB-19): 2.69 µM
- GI50 (DU-145): 0.14 µM
- LC50 (DU-145): 0.52 µM
- TGI (DU-145): 0.26 µM
- GI50 (SNB-75): 1.09 µM
- TGI (SNB-75): 2.29 µM
- CC50 (SNB-75): 4.78 µM
- GI50 (LOX IMVI): 0.23 µM
- TGI (LOX IMVI): 0.79 µM
- GI50 (OVCAR-5): 1.69 µM
- TGI (OVCAR-5): 3.23 µM
- CC50 (OVCAR-5): 6.3 µM
- GI50 (SF-268): 2.13 µM
- TGI (SF-268): 3.8 µM
- GI50 (786-0): 1.58 µM
- LC50 (786-0): 5.37 µM
- TGI (786-0): 2.88 µM
- GI50 (MCF7 [3]): 1.51 µM
- LC50 (concentration killing 50% of cells) (MCF7 [3]): > 100 µM
- TGI (MCF7 [3]): 4.07 µM
- GI50 (T47D): 0.22 µM
- LC50 (T47D): > 100 µM
- TGI (T47D): 0.61 µM
- GI50 (A498): 1.51 µM
- LC50 (lethal concentration, 50% cell kill) (A498): 5.37 µM
- TGI (A498): 2.81 µM
- GI50 (HOP-92): 1.47 µM
- TGI (HOP-92): 2.75 µM
- CC50 (HOP-92): 5.24 µM
- GI50 (CCRF-CEM): 1.38 µM
- TGI (CCRF-CEM): 2.75 µM
- CC50 (CCRF-CEM): 5.49 µM
- growth at 100 µM (NCI-H460 [4]): 0%

Compound: ClCc1cccc(Cn2cnc3c(Cl)nc(Cl)nc32)c1
- GI50 (M14): 1.77 µM
- LC50 (M14): 6.45 µM
- TGI (M14): 3.38 µM
- GI50 (Hs-578T): 1.99 µM
- TGI (Hs-578T): 4.36 µM
- GI50 (RPMI-8226): 3.31 µM
- TGI (RPMI-8226): > 100 µM
- CC50 (RPMI-8226): > 100 µM
- GI50 (SW-620): 1.58 µM
- TGI (SW-620): 3.46 µM
- CC50 (SW-620): 7.76 µM
- GI50 (HCT-15): 2.39 µM
- TGI (HCT-15): 6.91 µM
- CC50 (HCT-15): > 100 µM
- GI50 (ACHN): 1.9 µM
- TGI (ACHN): 3.71 µM
- CC50 (ACHN): 7.24 µM
- growth at 100 µM (MCF7 [1]): 0%
- GI50 (TK-10): 1.73 µM
- TGI (TK-10): 3.98 µM
- CC50 (TK-10): 8.91 µM
- GI50 (NCI-H460 [2]): 2.34 µM
- TGI (NCI-H460 [2]): 6.31 µM
- CC50 (NCI-H460 [2]): > 100 µM
- GI50 (UO-31): 1.58 µM
- LC50 (concentration causing 50% net cell kill) (UO-31): 5.88 µM
- TGI (UO-31): 3.09 µM
- GI50 (SF-295): 4.36 µM
- TGI (SF-295): 17 µM
- CC50 (SF-295): 45.7 µM
- GI50 (BT-549): 1.69 µM
- LC50 (50% lethal concentration) (BT-549): 6.16 µM
- TGI (BT-549): 3.23 µM
- GI50 (OVCAR-8): 1.82 µM
- LC50 (concentration killing 50% of cells) (OVCAR-8): 67.6 µM
- TGI (OVCAR-8): 3.54 µM
- GI50 (SK-MEL-28): 2.34 µM
- LC50 (concentration killing 50% of cells) (SK-MEL-28): > 100 µM
- TGI (SK-MEL-28): 5.37 µM
- GI50 (SNB-19): 1.95 µM
- LC50 (SNB-19): 8.92 µM
- TGI (SNB-19): 4.16 µM
- GI50 (DU-145): 1.58 µM
- LC50 (DU-145): 5.62 µM
- TGI (DU-145): 2.95 µM
- GI50 (SNB-75): 2.04 µM
- TGI (SNB-75): 3.89 µM
- CC50 (SNB-75): 7.41 µM
- GI50 (LOX IMVI): 1.69 µM
- LC50 (LOX IMVI): 6.91 µM
- TGI (LOX IMVI): 3.38 µM
- GI50 (OVCAR-5): 6.45 µM
- TGI (OVCAR-5): 20.4 µM
- CC50 (OVCAR-5): 47.9 µM
- GI50 (SF-268): 2.51 µM
- TGI (SF-268): 6.6 µM
- CC50 (SF-268; read-out: LC50 (the source's name)): 70.8 µM
- GI50 (786-0): 12.3 µM
- LC50 (786-0): 57.5 µM
- TGI (786-0): 26.9 µM
- GI50 (MCF7 [3]): 2.04 µM
- LC50 (concentration killing 50% of cells) (MCF7 [3]): > 100 µM
- TGI (MCF7 [3]): 6.45 µM
- GI50 (T47D): 1.95 µM
- LC50 (T47D): > 100 µM
- TGI (T47D): 4.46 µM
- GI50 (A498): 2.39 µM
- LC50 (lethal concentration, 50% cell kill) (A498): 27.5 µM
- TGI (A498): 6.6 µM
- GI50 (HOP-92): 1.82 µM
- TGI (HOP-92): 3.63 µM
- CC50 (HOP-92): 7.08 µM
- GI50 (CCRF-CEM): 2.69 µM
- TGI (CCRF-CEM): > 100 µM
- CC50 (CCRF-CEM): > 100 µM
- growth at 100 µM (NCI-H460 [4]): 0%
